In patent publication US6265445A, “Antiarrhythmic compounds” (priority 1997, dated 2001):
Structures can show the parent of a compound that is named as a salt. Where two headings read alike, the source gives them in different places.

Columns and labels:
[1] = tested on: isolated right ventricular trabecule of dog heart; assay: Extracellular electrophysiological measurements: impulse conduction time and effective refractory period; set-up: species or system mongrel dogs; details: for activation at 10 µM / activation at 2 µM: Canis lupus familiaris; for effect on impulse conduction (in words) / effect on effective refractory period (in words): concentrations of Table 1
Method: Right ventricular trabecules were prepared from the heart of mongrel dogs (weighing 5 to 10 kg each). The surviving heart pieces were placed into an organ bath (37° C.) containing modified Tyrode's nutrient medium and excited by point stimulation with a basal frequency of 1 Hz. Extracellular bipolar platinum electrodes were placed on the surface of the preparations, by means of which the propagation of the superficial potentials were registered; thus, the determination of the time of impulse conduction or the rate of impulse conduction, respectively, and the effective refractory period (ERP) became possible. During our experiments,the frequency of stimulation was temporarily varied from 0.5 Hz up to 3 Hz. The tested compounds were directly added to the organ bath after dilution of the stock solution according to the desired final concentration.

[2] = tested on: right ventricular papillary muscle of dogs; assay: Intracellular microelectrode technique: action potential parameters, ventricular papillary muscle; set-up: species or system mongrel dogs; details: for Trecovery (recovery time constant of Vmax): Gy: kinetics of rapid restoration; for effect on duration of the action potential (in words) / effect on Vmax (in words): concentrations of Table 2; for effect on Vmax (in words): rapid recovery kinetics
Method: The method used is essentially in agreement with the method of Papp et al. [J. Cardiovascular Pharmacol. Ther. 1, 287-296 (1996)].
Right ventricular papillary muscle and Purkinje's fibres were prepared from the hearts of mongrel dogs (weighing 5 to 10 kg each). The preparations were placed into an organ bath (37° C.) containing modified Tyrode's nutrient medium. The preparations were excited by a basal frequency of 1 Hz. During the experiments, the frequency of stimulation was varied under broad limits by a computer-guided stimulator. The intracellular action potentials were registered by using glass capillary microelectrodes filled with 3 N potassium chloride solution (standard intracellular microelectrode techniques). The resting potential (RP), the amplitude of the action potential (APA) as well as the duration of the action potential (APD) were measured by using an IBM 386 compatible computer by means of an own-developed software. The compounds under test were directly added into the organ bath after dilution of the stock solutions according to the final concentrations desired. The effects of the compounds were observed after an incubation time of 30 to 40 minutes.

[3] = 10 μM, 1 Hz, read-out: Prolongation (%) of ERP
[4] = 10 μM, 1 Hz, read-out: Prolongation (%) of impulse conduction time
[5] = 10 μM, 3 Hz, read-out: Prolongation (%) of ERP
[6] = 10 μM, 3 Hz, read-out: Prolongation (%) of impulse conduction time

**Q.** `Cc1cccc(C)c1OCCCN(C)CCc1ccc(NS(C)(=O)=O)cc1` [Example 23, N-[4-[2-[N-Methyl-N-[3-(2,6-dimethylphenoxy)propyl]amino]-ethyl]phenyl]methanesulfonamide hydrochloride] was tested. Which activation at 10 µM [1, 3] did it give?
**A.** The activation at 10 µM was 10.8%.

**Q.** And the activation at 10 µM [1, 4]?
**A.** The activation at 10 µM was 25%.

**Q.** What about the activation at 10 µM [1, 5] of the same molecule?
**A.** Its activation at 10 µM is 14.9%.

**Q.** What about the activation at 10 µM [1, 6] of the same molecule?
**A.** Its activation at 10 µM is 25%.

**Q.** Which results are given for `Cc1cccc(C)c1OCC(C)N.Cl` (stereo not shown) [Mexiletine, 2-(2,6-dimethylphenoxy)-1-methylethylamine hydrochloride, reference compound]?
**A.** APA (amplitude of the action potential) ([2]; 10 μM): 115 mV; APD50 (time of 50% repolarization) ([2]; 10 μM): 244 ms; APD90 (time of 90% repolarization) ([2]; 10 μM): 270 ms; RP (resting potential) ([2]; 10 μM): -92 mV; Recovery Ampl ([2]; 10 μM): 84.0 V/s; Recovery Ampl/Plateau ([2]; 10 μM): 0.45; Recovery Plateau ([2]; 10 μM): 186.5 V/s; Vmax (maximum rate of depolarization) ([2]; 10 μM): 193 V/s; Trecovery (recovery time constant of Vmax) ([2]; 10 μM): 214.1 ms; activation at 10 µM ([1]; read-out: Prolongation (%) of ERP, 10 μM, 1 Hz): -1.9 ± 1.7%; activation at 10 µM ([1]; read-out: Prolongation (%) of ERP, 10 μM, 3 Hz): 8.9%; activation at 10 µM ([1]; read-out: Prolongation (%) of impulse conduction time, 10 μM, 1 Hz): 3.9%; activation at 10 µM ([1]; read-out: Prolongation (%) of impulse conduction time, 10 μM, 3 Hz): 18.8%; effect on impulse conduction (in words) [1]: exerted an effect mainly on impulse conduction

**Q.** What does the source list for `Cc1cccc(C)c1OC[C@@H](C)N(C)CCc1ccc(NS(C)(=O)=O)cc1.Cl` [Example 17, (R)-N-[4-[2-[N-Methyl-N-[2-(2,6-dimethylphenoxy)-1-methylethyl]amino]ethyl]phenyl]methanesulfonamide hydrochloride]?
**A.** APA (amplitude of the action potential) ([2]; 5 μM): 106 mV; APD50 (time of 50% repolarization) ([2]; 5 μM): 203 ms; APD90 (time of 90% repolarization) ([2]; 5 μM): 249 ms; RP (resting potential) ([2]; 5 μM): -87 mV; Recovery Ampl ([2]; 5 μM): 85.2 V/s; Recovery Ampl/Plateau ([2]; 5 μM): 0.52; Recovery Plateau ([2]; 5 μM): 173.7 V/s; Vmax (maximum rate of depolarization) ([2]; 5 μM): 169 V/s; difference between the effects of Example 15 and its enantiomers (in words) ([2]; 5 μM): No essential difference could be observed; Trecovery (recovery time constant of Vmax) ([2]; 5 μM): 390.4 ms; effect on duration of the action potential (in words) [2]: simultaneous prolongation of duration of the action potential (APD); effect on Vmax (in words) [2]: mexiletine-like inhibition of Vmax; activation at 10 µM [1, 3]: 12.1%; activation at 10 µM [1, 4]: 32.5%; activation at 10 µM [1, 5]: 17.1%; activation at 10 µM [1, 6]: 35.1%; effect on effective refractory period (in words) [1]: simultaneous prolongation of the effective refractory period (ERP); effect on impulse conduction (in words) [1]: significantly prolonged the time of impulse conduction in a frequency-dependent manner

**Q.** How did the activation at 10 µM [1, 3] turn out when `Cc1cccc(C)c1OCC(C)N(C)CCc1ccc(NC(=O)c2ccccc2)cc1` (stereo not shown) [Example 25, N-[4-[2-[N-Methyl-N-[2-(2,6-dimethylphenoxy)-1-methylethyl]amino]ethyl]phenyl]benzamide hydrochloride] was run?
**A.** Its activation at 10 µM is 11.7%.

**Q.** What about the activation at 10 µM [1, 4] of the same molecule?
**A.** Its activation at 10 µM is 18.8%.

**Q.** What about the activation at 10 µM [1, 5] of the same molecule?
**A.** Its activation at 10 µM is 17%.

**Q.** And the activation at 10 µM [1, 6]?
**A.** The activation at 10 µM was 18.8%.

**Q.** What does the source list for `Cc1ccc(C)c(OCC(C)N(C)CCc2ccc(NS(C)(=O)=O)cc2)c1` (stereo not shown) [Example 20, N-[4-[2-[N-Metbyl-N-[2-(2,5-dimethylphenoxy)-1-methylethyl]amino]ethyl]phenyl]methanesulfonamide hydrochloride]?
**A.** activation at 10 µM [1, 3]: 8.4%; activation at 10 µM [1, 4]: 20.3%; activation at 10 µM [1, 5]: 12.6%; activation at 10 µM [1, 6]: 24.5%

**Q.** What does the source list for `Cc1cccc(C)c1OCC(C)N(C)CCc1ccc(N)cc1` (stereo not shown) [Example 9, N-[2-(2,6-Dimethylphenoxy)-1-methylethyl]-N-methyl-2-(4-aminophenyl)ethylamine]?
**A.** APA (amplitude of the action potential) ([2]; 1 μM): 110 mV; APD50 (time of 50% repolarization) ([2]; 1 μM): 285 ms; APD90 (time of 90% repolarization) ([2]; 1 μM): 342 ms; RP (resting potential) ([2]; 1 μM): -91 mV; Recovery Ampl ([2]; 1 μM): 132.4 V/s; Recovery Ampl/Plateau ([2]; 1 μM): 0.61; Recovery Plateau ([2]; 1 μM): 216.5 V/s; Vmax (maximum rate of depolarization) ([2]; 1 μM): 200 V/s; Trecovery (recovery time constant of Vmax) ([2]; 1 μM): 307.4 ms; effect on duration of the action potential (in words) [2]: simultaneous prolongation of duration of the action potential (APD); effect on Vmax (in words) [2]: mexiletine-like inhibition of Vmax; activation at 2 µM ([1]; 1 Hz, read-out: Prolongation (%) of ERP): 31.8%; activation at 2 µM ([1]; 1 Hz, read-out: Prolongation (%) of impulse conduction time): 38%; activation at 2 µM ([1]; 3 Hz, read-out: Prolongation (%) of ERP): 39.4%; activation at 2 µM ([1]; 3 Hz, read-out: Prolongation (%) of impulse conduction time): 51.3%; effect on effective refractory period (in words) [1]: simultaneous prolongation of the effective refractory period (ERP); effect on impulse conduction (in words) [1]: significantly prolonged the time of impulse conduction in a frequency-dependent manner

**Q.** What does the source list for `Cc1cccc(C)c1OC[C@H](C)N(C)CCc1ccc(NS(C)(=O)=O)cc1` [Example 16, (S)-N-[4-[2-[N-Methyl-N-[2-(2,6-dimethylphenoxy)-1-methylethyl]amino]ethyl]pbenyl]methanesulfonamide hydrochloride]?
**A.** APA (amplitude of the action potential) ([2]; 5 μM): 105 mV; APD50 (time of 50% repolarization) ([2]; 5 μM): 195 ms; APD90 (time of 90% repolarization) ([2]; 5 μM): 244 ms; RP (resting potential) ([2]; 5 μM): -86 mV; Recovery Ampl ([2]; 5 μM): 75.8 V/s; Recovery Ampl/Plateau ([2]; 5 μM): 0.39; Recovery Plateau ([2]; 5 μM): 196.4 V/s; Vmax (maximum rate of depolarization) ([2]; 5 μM): 199 V/s; difference between the effects of Example 15 and its enantiomers (in words) ([2]; 5 μM): No essential difference could be observed; Trecovery (recovery time constant of Vmax) ([2]; 5 μM): 249.5 ms; effect on duration of the action potential (in words) [2]: simultaneous prolongation of duration of the action potential (APD); effect on Vmax (in words) [2]: mexiletine-like inhibition of Vmax; activation at 10 µM [1, 3]: 10.7%; activation at 10 µM [1, 4]: 26.9%; activation at 10 µM [1, 5]: 14.3%; activation at 10 µM [1, 6]: 39.7%; effect on effective refractory period (in words) [1]: simultaneous prolongation of the effective refractory period (ERP); effect on impulse conduction (in words) [1]: significantly prolonged the time of impulse conduction in a frequency-dependent manner

**Q.** How did the activation at 10 µM [1, 3] turn out when `Cc1cccc(C)c1OCCCCN(C)CCc1ccc(NS(C)(=O)=O)cc1.Cl` [Example 24, N-[4-[2-[N-Methyl-N-[4-(2,6-dimethylphenoxy)butyl]amino]ethyl]phenyl]methanesulfonamide hydrochloride] was run?
**A.** The activation at 10 µM was 13.8%.

**Q.** What about the activation at 10 µM [1, 4] of the same molecule?
**A.** The activation at 10 µM was 69%.

**Q.** What about the activation at 10 µM [1, 5] of the same molecule?
**A.** Its activation at 10 µM is 18.4%.

**Q.** And the activation at 10 µM [1, 6]?
**A.** Its activation at 10 µM is 82.9%.

**Q.** And the “effect on effective refractory period (in words)” value [1]?
**A.** The value was “simultaneous prolongation of the effective refractory period (ERP)”.

**Q.** What about the “effect on impulse conduction (in words)” value [1] of the same molecule?
**A.** The value was “significantly prolonged the time of impulse conduction in a frequency-dependent manner”.
